Sc1nc2ccccc2[nH]1
solubility (mole fraction)
Conditions | 278.15 K | 283.15 K | 288.15 K | 293.15 K | 298.15 K | 303.15 K | 308.15 K | 313.15 K | 318.15 K
in 1,4-dioxane | 0.0141 | 0.0153 | 0.0166 | 0.0181 | 0.0195 | 0.021 | 0.0227 | 0.0246 | 0.0265
in 2-butanone | 0.0103 | 0.011 | 0.0117 | 0.0124 | 0.0133 | 0.0141 | 0.0151 | 0.0162 | 0.0172
in acetone | 0.0121 | 0.0128 | 0.0135 | 0.0143 | 0.0152 | 0.016 | 0.0169 | 0.0179 | 0.0189
in acetonitrile | 0.00102 | 0.00115 | 0.00129 | 0.00146 | 0.00163 | 0.00183 | 0.00205 | 0.00228 | 0.00257
in cyclohexane | 4.36e-06 | 5.51e-06 | 7.05e-06 | 8.99e-06 | 1.16e-05 | 1.49e-05 | 1.88e-05 | 2.27e-05 | 2.81e-05
in ethanol | 0.00532 | 0.00634 | 0.00746 | 0.00868 | 0.00998 | 0.0114 | 0.0126 | 0.0142 | 0.0158
in ethyl acetate | 0.00198 | 0.00236 | 0.00275 | 0.00318 | 0.00366 | 0.00413 | 0.00463 | 0.00518 | 0.00577
in isopropanol | 0.0034 | 0.00435 | 0.00528 | 0.00635 | 0.00755 | 0.0088 | 0.0102 | 0.0116 | 0.0132
in methanol | 0.00625 | 0.0073 | 0.00848 | 0.00964 | 0.0109 | 0.0123 | 0.0138 | 0.0152 | 0.0169
in n-butanol | 0.0041 | 0.0049 | 0.0058 | 0.0069 | 0.00809 | 0.00941 | 0.0109 | 0.0125 | 0.0144
in n-propanol | 0.00484 | 0.00559 | 0.0065 | 0.00759 | 0.00872 | 0.00999 | 0.0114 | 0.0131 | 0.0151
in toluene | 2.01e-05 | 2.73e-05 | 3.51e-05 | 4.35e-05 | 5.3e-05 | 6.38e-05 | 7.53e-05 | 8.87e-05 | 0.000104

From BigSolDB 2.1
